In PMC3827198, “Characterisation of AmphiAmR11, an Amphioxus (Branchiostoma floridae) D2-Dopamine-Like G Protein-Coupled Receptor” (PLoS ONE, 2013):
Where a name gives a salt, the structure may show the parent alone. Read-outs that look alike come from different tables or passages of the source. Values belong to the compound of their own block, whether it stands above or below them.

Assays:
AmphiAmR11 [1] = target: T1, AmphiAmR11 (Branchiostoma floridae, UniProt A0PF35); experiment: ERK1/2 phosphorylation in AmphiAmR11-expressing CHO-K1 cells (Western blotting); type: cell-based; conditions: for Effect of antagonist on ERK1/2 phosphorylation in the absence of dopamine: 1 μM antagonist
AmphiAmR4 = test system: AmphiAmR4; parameters: method as in PMID 23183848; conditions: cited from earlier work
AmphiAmR11 [2] = target: T1, AmphiAmR11; experiment: Inhibition of forskolin-stimulated cAMP levels in AmphiAmR11-expressing CHO-K1 cells (agonist mode); type: cell-based
CeDOP2L = test system: CeDOP2L; parameters: method as in PMID 12887685; conditions: cited from earlier work; for Antagonist effect at invertebrate D2-like receptor CeDOP2L at high concentration: 10 µM
AmphiAmR11 [3] = target: T1, AmphiAmR11; experiment: Block of tyramine-induced inhibition of forskolin-stimulated cAMP levels in AmphiAmR11-expressing CHO-K1 cells; type: cell-based; conditions: 30 nM tyramine; for Block of tyramine-induced inhibition of forskolin-stimulated cAMP levels: 10 µM forskolin
DD2R = test system: DD2R; parameters: method as in PMID 12391323; conditions: cited from earlier work; for Antagonist effect at invertebrate D2-like receptor DD2R at high concentration: 10 µM
AmphiAmR11 [4] = target: T1, AmphiAmR11; experiment: Block of dopamine-induced ERK1/2 activation in AmphiAmR11-expressing CHO-K1 cells by antagonists; type: cell-based; conditions: 1 µM antagonist, 10 nM dopamine, 5 min
CeDOP2S = test system: CeDOP2S; parameters: method as in PMID 12887685; conditions: cited from earlier work; for Antagonist effect at invertebrate D2-like receptor CeDOP2S at high concentration: 10 µM
D2-dopamine receptors = test system: D2-dopamine receptors; parameters: method as in PMID 10531409, PMID 9572301; conditions: cited from earlier work
D3-dopamine receptors = test system: D3-dopamine receptors; parameters: method as in PMID 10531409, PMID 9572301; conditions: cited from earlier work
human 5HT1A receptor = conditions: cited from earlier work

T1 sequence (A0PF35 entry or part of it): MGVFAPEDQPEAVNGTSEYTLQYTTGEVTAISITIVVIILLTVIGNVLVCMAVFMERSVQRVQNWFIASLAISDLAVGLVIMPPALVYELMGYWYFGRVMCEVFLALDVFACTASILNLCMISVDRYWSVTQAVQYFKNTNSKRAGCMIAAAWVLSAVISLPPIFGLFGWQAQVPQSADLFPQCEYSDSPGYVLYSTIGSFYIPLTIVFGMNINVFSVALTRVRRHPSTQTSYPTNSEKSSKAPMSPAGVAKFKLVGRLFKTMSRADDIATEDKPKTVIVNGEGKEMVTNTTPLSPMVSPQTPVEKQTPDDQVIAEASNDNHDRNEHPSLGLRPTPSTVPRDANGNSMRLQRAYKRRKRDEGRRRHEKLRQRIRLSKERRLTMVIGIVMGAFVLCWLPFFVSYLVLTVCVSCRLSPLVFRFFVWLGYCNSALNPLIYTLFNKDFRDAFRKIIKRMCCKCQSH

Effect on ERK1/2 phosphorylation at 1 µM (AmphiAmR11 [1]; 1 µM synthetic agonist, 5 min, dopamine as reference): most effective of the synthetic agonists | Effect on forskolin-stimulated cAMP levels at 1 µM (AmphiAmR11 [2]; 1 µM agonist, 10 µM forskolin, 100 µM IBMX, 20 min): most effective agonists | EC50 (AmphiAmR11 [2]; 10 µM forskolin, 100 µM IBMX, 20 min, full concentration response curves, read-out: EC50 for decrease in forskolin-stimulated cAMP levels): 0.287 nM
Structure (SMILES): c1ccc2c(CC3=NCCN3)cccc2c1 [naphazoline, naphazoline hydrochloride]
Effect on ERK1/2 phosphorylation at 100 nM (AmphiAmR11 [1]; 100 nM synthetic agonist, 5 min): increased the ERK1/2 phosphorylation level above that of the basal condition | Agonist activity at AmphiAmR4 (AmphiAmR4): most potent agonist

Structure (SMILES): Cl.Cl.OCCN1CCN(CC/C=C2/c3ccccc3Sc3ccc(C(F)(F)F)cc32)CC1 [flupenthixol, cis-(Z)-flupenthixol dihydrochloride]
Antagonist effect at invertebrate D2-like receptor CeDOP2L at high concentration (CeDOP2L): only a partial effect | Block of tyramine-induced inhibition of forskolin-stimulated cAMP levels (AmphiAmR11 [3]; 1 μM antagonist): no significant blocking effect | Antagonist effect at invertebrate D2-like receptor DD2R at high concentration (DD2R): only a partial effect | Effect of antagonist on ERK1/2 phosphorylation in the absence of dopamine (AmphiAmR11 [1]): did not exhibit any agonistic properties | Block of dopamine-induced ERK1/2 activation (AmphiAmR11 [4]): no significant effect | Antagonist effect at invertebrate D2-like receptor CeDOP2S at high concentration (CeDOP2S): only a partial effect

Block of tyramine-induced inhibition of forskolin-stimulated cAMP levels (AmphiAmR11 [3]; 1 μM antagonist): no significant blocking effect | Effect of antagonist on ERK1/2 phosphorylation in the absence of dopamine (AmphiAmR11 [1]): did not exhibit any agonistic properties | Block of dopamine-induced ERK1/2 activation (AmphiAmR11 [4]): no significant effect
Structure (SMILES): CC(C)(C)[C@]1(O)CCN2C[C@H]3c4ccccc4CCc4cccc(c43)[C@@H]2C1 [butaclamol, (+)-butaclamol hydrochloride]
Antagonist effect at invertebrate D2-like receptor CeDOP2L at high concentration (CeDOP2L): only a partial effect | Antagonist effect at invertebrate D2-like receptor DD2R at high concentration (DD2R): only a partial effect | Antagonist effect at invertebrate D2-like receptor CeDOP2S at high concentration (CeDOP2S): only a partial effect

Structure (SMILES): COC[C@H]1OC(=O)c2coc3c2[C@@]1(C)C1=C(C3=O)[C@@H]2CCC(=O)[C@@]2(C)C[C@H]1OC(C)=O [wortmannin]
Effect on D2-mediated ERK1/2 activation in CHO cells (D2-dopamine receptors): partially reduce | Effect on D3-mediated ERK1/2 activation in CHO cells (D3-dopamine receptors): partially reduce

Block of tyramine-induced inhibition of forskolin-stimulated cAMP levels (AmphiAmR11 [3]; 1 μM antagonist): no significant blocking effect
Structure (SMILES): CN1CCc2cc(Cl)c(O)cc2[C@@H](c2ccccc2)C1 [SCH23390, R(+)-7-chloro-8-hydroxy-3-methyl-1-phenyl-2,3,4,5-tetrahydro-^1H-3-benzazepine hydrochloride]
Effect on dopamine-mediated signalling via CeDOP2L (CeDOP2L): not to affect | Effect on dopamine-mediated signalling via DD2R (DD2R): not to affect | Effect on dopamine-mediated signalling via CeDOP2S (CeDOP2S): not to affect

Structure (SMILES): COC(=O)[C@@H]1[C@H]2C[C@H]3c4[nH]c5ccccc5c4CCN3C[C@@H]2CC[C@@H]1O [yohimbine, yohimbine hydrochloride]
Apparent enhancement of tyramine-induced inhibition of forskolin-stimulated cAMP levels (AmphiAmR11 [3]; 1 μM antagonist): appeared to enhance | Block of tyramine-induced inhibition of forskolin-stimulated cAMP levels (AmphiAmR11 [3]; 1 μM antagonist): no significant blocking effect | Blocking effect on tyramine-induced response at reduced antagonist concentrations (AmphiAmR11 [3]; varying concentrations of antagonist): no blocking effect | Effect of antagonist on ERK1/2 phosphorylation in the absence of dopamine (AmphiAmR11 [1]): increase in ERK1/2 phosphorylation | Block of dopamine-induced ERK1/2 activation (AmphiAmR11 [4]): no significant effect | EC50 (AmphiAmR11 [2]): 17.1 nM | Decrease of forskolin-stimulated cAMP levels by antagonist in the absence of agonist (AmphiAmR11 [2]; 1 μM antagonist, 10 µM forskolin): could inhibit forskolin-stimulated cAMP levels | Agonist type at AmphiAmR11 (full or partial) (AmphiAmR11 [2]; cAMP assay): full agonists | Inhibition of forskolin-stimulated cAMP levels (maximal) (AmphiAmR11 [2]; concentration-response curves, absence of other agonist): greater than 90% | Agonist activity at human 5HT1A receptor (human 5HT1A receptor): partial agonist activity
